In patent US20180099931A1 (AbbVie S.à.r.l., priority 2016, published 2018):
Read-outs that look alike come from different tables or passages of the source.

Target: T1, F508delCFTR (Homo sapiens, UniProt P13569, DEL508-508)
T1 construct: expressed in transfected cells; host or cells: CFBE41o- human lung-derived epithelial cells (CFBE4lo-F508delCFTR-HRP), doxycycline-inducible
Assay: Cell Surface Expression-Horse Radish Peroxidase (CSE-HRP) Assay;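 as to Maximum % activity (with co-corrector): co-corrector and positive control are both the same reference corrector at 2 µM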
Format: cell-based
Settings: for Emax: read-out: Maximum % activity (without co-corrector)
Experimental: Cell Surface Expression-Horse Radish Peroxidase (CSE-HRP) Assay;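 as to Maximum % activity (with co-corrector): co-corrector and positive control are both the same reference corrector at 2 µM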
The development was achieved by expressing the F508delCFTR mutation along with a horseradish peroxidase (HRP) in the fourth exofacial loop, and then measuring the HRP activity using luminescence readout from these cells, CFBE4lo-F508delCFTR-HRP, that were incubated overnight with the test corrector compounds, either without or with the co-corrector. […] The test compounds were then added either without or with a co-corrector at the required concentrations and further incubated for 18-24 hours at 33° C. The highest concentration tested was 20 μM with an 8-point concentration response curve using a 3-fold dilution in both the test compound without or with the co-corrector. Three replicate plates were run to determine one EC50. All plates contained negative controls (dimethyl sulfoxide, DMSO) and positive control (2 μM of 3-[(2R,4R)-4-({[1-(2,2-difluoro-1,3-benzodioxol-5-yl)cyclopropyl]carbonyl}amino)-7-methoxy-3,4-dihydro-2H-chromen-2-yl]benzoic acid) as well as on-plate concentration response of the positive control. […] The raw counts from the experiment were analyzed using Accelrys® Assay Explorer v3.3.
1−[3*SDPositive Control+3*SDNegative Control/Absolute(MeanPositive Control−MeanNegative Control)]
wherein “SD” is standard deviation.
The % activity measured at each of the 8 test concentrations of the test compound added either without or with a co-corrector (2 μM of 3-[(2R,4R)-4-({[1-(2,2-difluoro-1,3-benzodioxol-5-yl)cyclopropyl]carbonyl}amino)-7-methoxy-3,4-dihydro-2H-chromen-2-yl]benzoic acid) was normalized to the on-plate positive control using the following formulae:
% activity(Test compound without co-corrector)=[(test compound without co-corrector response−DMSO response)/(positive control response−DMSO response)]*100
% activity(Test compound with co-corrector)=[(test compound with co-corrector response−DMSO response)/(positive control response−DMSO response)]*100
The maximum % activity achieved for the test compound either without or with a co-corrector at any tested concentration is presented in Table 4 along with the respective EC50's calculated using the following general sigmoidal curve with variable Hill slope equation (described as Model 42 in the Accelrys® Assay Explorer v3.3 software):
General sigmoidal curve with concentration, response, top, bottom, EC50 and Hill slope. This model describes a sigmoidal curve with an adjustable baseline, a. The equation can be used to fit curves where response is either increasing or decreasing with respect to the independent variable, “x”.
“x” is a concentration of drug under test. “y” is the response. “a” is the maximum response, and “d” is the minimum response “c” is the inflection point (EC50) for the curve. That is, “y” is halfway between the lower and upper asymptotes when x=c. “b” is the slope-factor or Hill coefficient. The sign of b is positive when the response increases with increasing dose and is negative when the response decreases with increasing dose (inhibition).

[1] = CSE-HRP, test compound without co-corrector, read-out: EC50 (without co-corrector)
[2] = CSE-HRP, with co-corrector (2 μM of 3-[(2R,4R)-4-({[1-(2,2-difluoro-1,3-benzodioxol-5-yl)cyclopropyl]carbonyl}amino)-7-methoxy-3,4-dihydro-2H-chromen-2-yl]benzoic acid), read-out: EC50 (with co-corrector)
[3] = CSE-HRP, with co-corrector (2 μM), maximum at any tested concentration, normalized to on-plate positive control
[4] = CSE-HRP, without co-corrector, maximum at any tested concentration, normalized to on-plate positive control
[5] = test compound without co-corrector, maximum at any tested concentration, normalized to on-plate positive control
[6] = test compound without co-corrector, read-out: EC50 (without co-corrector)
[7] = with co-corrector (2 μM of 3-[(2R,4R)-4-({[1-(2,2-difluoro-1,3-benzodioxol-5-yl)cyclopropyl]carbonyl}amino)-7-methoxy-3,4-dihydro-2H-chromen-2-yl]benzoic acid), maximum at any tested concentration, normalized to on-plate positive control
[8] = with co-corrector (2 μM of 3-[(2R,4R)-4-({[1-(2,2-difluoro-1,3-benzodioxol-5-yl)cyclopropyl]carbonyl}amino)-7-methoxy-3,4-dihydro-2H-chromen-2-yl]benzoic acid), read-out: EC50 (with co-corrector)
[9] = with co-corrector (2 μM), maximum at any tested concentration, normalized to on-plate positive control
[10] = without co-corrector, maximum at any tested concentration, normalized to on-plate positive control

T1 sequence (P13569 with tags, fused parts or gaps DEL508-508): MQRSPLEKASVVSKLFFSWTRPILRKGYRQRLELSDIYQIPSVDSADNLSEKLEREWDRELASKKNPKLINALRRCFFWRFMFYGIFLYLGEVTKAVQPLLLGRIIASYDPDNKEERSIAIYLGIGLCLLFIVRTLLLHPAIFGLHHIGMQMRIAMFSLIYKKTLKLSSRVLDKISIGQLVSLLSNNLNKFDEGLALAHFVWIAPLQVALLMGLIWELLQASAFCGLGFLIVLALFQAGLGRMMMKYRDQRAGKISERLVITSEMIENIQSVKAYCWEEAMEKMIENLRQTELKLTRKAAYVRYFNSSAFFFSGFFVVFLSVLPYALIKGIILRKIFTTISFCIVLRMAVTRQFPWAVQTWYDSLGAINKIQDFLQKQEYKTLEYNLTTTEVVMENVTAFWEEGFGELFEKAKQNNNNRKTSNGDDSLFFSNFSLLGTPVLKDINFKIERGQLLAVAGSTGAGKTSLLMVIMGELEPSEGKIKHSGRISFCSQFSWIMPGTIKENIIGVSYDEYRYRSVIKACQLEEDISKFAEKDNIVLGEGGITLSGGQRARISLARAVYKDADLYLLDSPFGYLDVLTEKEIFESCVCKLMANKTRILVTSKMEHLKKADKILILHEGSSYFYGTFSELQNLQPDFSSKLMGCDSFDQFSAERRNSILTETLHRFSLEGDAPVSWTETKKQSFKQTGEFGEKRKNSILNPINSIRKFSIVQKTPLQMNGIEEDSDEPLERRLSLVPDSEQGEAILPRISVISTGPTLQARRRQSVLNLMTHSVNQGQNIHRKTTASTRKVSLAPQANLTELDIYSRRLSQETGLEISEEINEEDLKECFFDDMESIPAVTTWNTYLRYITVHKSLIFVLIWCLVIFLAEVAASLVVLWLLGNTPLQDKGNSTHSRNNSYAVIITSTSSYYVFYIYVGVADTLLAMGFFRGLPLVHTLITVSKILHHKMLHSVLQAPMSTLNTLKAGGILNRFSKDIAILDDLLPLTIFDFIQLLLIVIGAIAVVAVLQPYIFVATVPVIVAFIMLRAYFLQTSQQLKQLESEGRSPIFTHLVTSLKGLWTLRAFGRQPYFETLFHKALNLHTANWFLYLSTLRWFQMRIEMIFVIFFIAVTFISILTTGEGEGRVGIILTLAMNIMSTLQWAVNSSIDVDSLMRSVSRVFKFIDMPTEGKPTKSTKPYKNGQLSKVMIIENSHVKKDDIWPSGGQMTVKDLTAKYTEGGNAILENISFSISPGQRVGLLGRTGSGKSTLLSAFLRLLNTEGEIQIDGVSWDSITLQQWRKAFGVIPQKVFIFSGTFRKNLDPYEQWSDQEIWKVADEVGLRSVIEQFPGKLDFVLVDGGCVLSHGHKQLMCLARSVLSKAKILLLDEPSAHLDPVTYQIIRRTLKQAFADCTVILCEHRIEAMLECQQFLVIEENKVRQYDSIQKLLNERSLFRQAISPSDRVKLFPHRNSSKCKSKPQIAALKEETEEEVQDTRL

SMILES	EC50 [1] [nM]	EC50 [2] [nM]	Maximum % activity (with co-corrector) [3]	Emax [4] [%]	EC50 [6] [nM]	EC50 [8] [nM]	further results
COc1cc2c(cc1CN[C@H]1[C@H](C(C)(C)C)[C@@H](C(=O)O)N(C(=O)C3CCCCC3)[C@H]1c1ccccc1)OCO2 [II-116]	1000 to 10000	1000 to 10000	+++ (≥350)	100 to 200			
COc1ccc(C2CCCC2)cc1CN[C@H]1[C@H](C(C)(C)C)[C@@H](C(=O)O)N(C(=O)C2CCCCC2)[C@H]1c1ccccc1 [II-193]	< 1000	< 1000	+++ (≥350)	> 200			
COc1cnc(-c2ccc(C)cc2F)cc1CN[C@H]1[C@H](C(C)(C)C)[C@@H](C(=O)O)N(C(=O)C2CCCCC2)[C@H]1c1ccccc1 [II-416]					< 1000	< 1000	Emax [5]: 100 to 200%; Maximum % activity (with co-corrector) [7]: +++ (≥350)
COc1cc(C(F)(F)F)ccc1CN[C@H]1[C@H](C(C)(C)C)[C@@H](C(=O)O)N(C(=O)[C@@H]2CCCCO2)[C@H]1c1ccccc1Br [Example I-289]	1000 to 10000	< 1000	+++ (≥350)	100 to 200			
COc1ncc(Br)cc1CN[C@H]1[C@H](C(C)(C)C)[C@@H](C(=O)O)N(C(=O)[C@@H]2CCCCO2)[C@H]1c1ccccc1C [Example I-287]	1000 to 10000	< 1000	+++ (≥350)	> 200			
COc1ccc(Cl)c2c1CN([C@H]1[C@H](C(C)(C)C)[C@@H](C(=O)O)N(C(=O)[C@@H]3CCCCO3)[C@H]1c1ccccc1C(C)C)C2 [Example I-308]	1000 to 10000	< 1000	+++ (≥350)	< 100			
COc1ncc(-c2ccccc2C)cc1CN[C@H]1[C@H](C(C)(C)C)[C@@H](C(=O)O)N(C(=O)C2CCCCC2)[C@H]1c1ccccc1 [II-342]					< 1000	< 1000	Emax [5]: > 200%; Maximum % activity (with co-corrector) [7]: +++ (≥350)
CC(C)(C)[C@@H]1[C@@H](NCc2ccccc2OC(F)(F)F)[C@@H](c2ccccc2)N(C(=O)C2CCCCC2)[C@H]1C(=O)O (racemic) [II-76]	1000 to 10000	1000 to 10000	+++ (≥350)	< 100			
COc1ccc(C23CC(C2)C3)cc1CN[C@H]1[C@H](C(C)(C)C)[C@@H](C(=O)O)N(C(=O)C2CCCCC2)[C@H]1c1ccccc1OC [II-484]					< 1000	< 1000	Emax [5]: 100 to 200%; Maximum % activity (with co-corrector) [7]: +++ (≥350)
CCOc1cc(N[C@H]2[C@H](C(C)(C)C)[C@@H](C(=O)O)N(C(=O)C3CCCCC3)[C@H]2c2ccccc2)nc2ccccc12 [III-152]					> 10000	1000 to 10000	Emax [5]: < 100%; Maximum % activity (with co-corrector) [9]: ++ (≥150 and <350)
COc1ccc(CN[C@H]2[C@H](C(C)(C)C)[C@@H](C(=O)O)N(C(=O)C3CCCCC3)[C@H]2c2ccccc2)c(C(F)(F)F)c1 [II-109]	< 1000	1000 to 10000	++ (≥150 and <350)	< 100			
COc1ccc(C2(C(F)(F)F)CC2)cc1CN[C@H]1[C@H](C(C)(C)C)[C@@H](C(=O)O)N(C(=O)C2Cc3ccccc3O2)[C@H]1c1cccnc1N(C)C (single isomer, unassigned) [Example 37, (2S,3S,4S,5S)-3-tert-butyl-1-[(2R*)-2,3-dihydro-1-benzofuran-2-carbonyl]-5-[2-(dimethylamino)pyridin-3-yl]-4-[({2-methoxy-5-[1-(trifluoromethyl)cyclopropyl]phenyl}methyl)amino]pyrrolidine-2-carboxylic acid]					< 1000	< 1000	Maximum % activity (with co-corrector) (with co-corrector (2 μM), maximum at any tested concentration, normalized to on-plate positive control, 2 µM): ++ (≥150 and <350); Maximum % activity (without co-corrector) [10]: + (<100)
COc1ncc(C2CCC2)cc1CN[C@H]1[C@H](C(C)(C)C)[C@@H](C(=O)O)N(C(=O)[C@H]2CCCCO2)[C@H]1c1ccccc1F [II-566]					1000 to 10000	1000 to 10000	Emax [5]: 100 to 200%; Maximum % activity (with co-corrector) [7]: +++ (≥350)
COc1ncc(C(F)(F)F)cc1CN[C@@H]1[C@@H](C(C)(C)C)[C@H](C(=O)O)N(C(=O)C2CCCCC2)[C@@H]1c1cccnc1N(C)C (racemic) [II-52]	1000 to 10000	1000 to 10000	+++ (≥350)	100 to 200			

Further lines, with some results ahead:

EC50 [1] [nM]	EC50 [2] [nM]	Maximum % activity (with co-corrector) [3]	Emax [4] [%]	EC50 [6] [nM]	EC50 [8] [nM]	SMILES	further results
1000 to 10000	1000 to 10000	++ (≥150 and <350)	< 100			CC(C)OC(=O)N1[C@H](C(=O)O)[C@@H](C(C)(C)C)[C@H](NCC(C)(C)c2ccccc2)[C@@H]1c1ccccc1 [Example I-264]	
				1000 to 10000	1000 to 10000	COc1ccc(C(C)(C)C)cc1CN[C@H]1[C@H](C(C)(C)C)[C@@H](C(=O)O)N(C(=O)C2(c3ccccc3)CC2)[C@H]1c1cccnc1OC [Example I-248]	Maximum % activity (with co-corrector) [9]: +++ (≥350); Emax [10]: 100 to 200%
				1000 to 10000	1000 to 10000	COc1ccc(C(C)(C)C)cc1CN[C@H]1[C@H](C(C)(C)C)[C@@H](C(=O)O)N(C(=O)[C@@H]2OCC[C@@H]2C(C)C)[C@H]1c1ccccc1 (relative stereo) [Example I-104, (2S,3S,4S,5S)-3-tert-butyl-4-{[(5-tert-butyl-2-methoxyphenyl)methyl]amino}-5-phenyl-1-[(2R*,3R*)-3-(propan-2-yl)oxolane-2-carbonyl]pyrrolidine-2-carboxylic acid]	Maximum % activity (with co-corrector) [9]: +++ (≥350); Emax [10]: 100 to 200%
				1000 to 10000	1000 to 10000	COc1ccc(C(C)(C)C)cc1CN[C@H]1[C@H](C(C)(C)C)[C@@H](C(=O)O)N(C(=O)C2Cc3ccccc3O2)[C@H]1c1cccnc1N(C)C (single isomer, unassigned) [II-421]	Emax [5]: < 100%; Maximum % activity (with co-corrector) [7]: ++ (≥150 and <350)
1000 to 10000	1000 to 10000	+++ (≥350)	> 200			COc1ccc(C(C)(C)C)cc1CN[C@H]1[C@H](C(C)(C)C)[C@@H](C(=O)O)N(C(=O)[C@@H](C)OC)[C@H]1c1ccccc1 [II-311]	
1000 to 10000	< 1000	+++ (≥350)	> 200			COc1ccc(C(C)(C)C)cc1CN[C@H]1[C@H](C(C)(C)C)[C@@H](C(=O)O)N(C(=O)C(C)c2ccccc2)[C@H]1c1ccccc1 (stereo partly shown) [II-215]	
				1000 to 10000	1000 to 10000	COc1nc(C(C)(C)C)ccc1CN[C@H]1[C@H](C(C)(C)C)[C@@H](C(=O)O)N(C(=O)[C@H]2CCCCO2)[C@H]1c1ccccc1 [Example 39, (2S,3S,4S,5S)-3-tert-butyl-4-{[(6-tert-butyl-2-methoxypyridin-3-yl)methyl]amino}-1-[(2R)-oxane-2-carbonyl]-5-phenylpyrrolidine-2-carboxylic acid]	Maximum % activity (with co-corrector) [9]: +++ (≥350); Emax [10]: 100 to 200%
1000 to 10000	< 1000	+++ (≥350)	< 100			COc1ccc(C(F)(F)F)cc1CN[C@H]1[C@H](C(C)(C)C)[C@@H](C(=O)O)N(C(=O)C2CCc3ccccc3O2)[C@H]1c1ccccc1 (stereo partly shown) [II-163]	
